The subject of the experiment is Dvl2. Put plainly: Ligand-dependent phosphorylation of Dvl2. It counts as cell-based, human. The note with it: HeLa cells, FIG. 4E. From the text: FIGS. 4A-4F show Tnks inhibitors induce telomeric stress in human cells independently of Wnt/β-catenin pathway inhibition. (FIG. 4A) Porcn inhibitors afford a Tnks-independent approach to disrupting Wnt/β-catenin signaling. Chemicals targeting the Wnt acyltransferase Porcn abrogate Wnt palmitoylation which in turn results in loss of activity of the Frizzled (Fzd) family of Wnt receptors. Fzd receptors directly induce activation of the cytoplasmic signaling molecule Dishevelled (Dvl) in a ligand-dependent manner, which in turn results in activation of β-catenin and transcription mediated by the TCF family of DNA binding proteins. IWP-2 and the clinical candidate LGK-974 represent two structurally distinct Porcn inhibitors. (FIG. 4B) Tnks but not Porcn inhibitors induce DNA damage at telomeres. The appearance of co-localized Terf2 and pH2A.X (an indicator of DNA damage at the telomere ends; Telomere Induced Foci or TIFs) was scored using indirect immunofluorescence in Hela cells (expressing wild-type Apc protein). (FIG. 4C) Quantification of results represented in “B”. Cells with >5 TIFs were scored as positive for telomeric damage (left bars). Mean total phosphorylated H2A.X (γ H2A.X) was used to measure general DNA damage responses (right bars). […] Digital droplet-based telomerase extension analysis of genomic DNA isolated from HeLa cells treated for 24 hrs with indicated compounds. […]

For the compound `Cc1cc(-c2ncc(CC(=O)Nc3ccc(-c4cnccn4)cn3)cc2C)ccn1` [LGK-974], the “ligand-dependent phosphorylation of Dvl2” value is recorded as “block ligand-dependent phosphorylation of Dvl2”.
In the case of `Cc1ccc2nc(NC(=O)CSc3nc4c(c(=O)n3-c3ccccc3)SCC4)sc2c1` [IWP-2] it was “block ligand-dependent phosphorylation of Dvl2”.

The values are drawn from US10420758B2, “Indolinyl-sulfonamide inhibitors of tankyrase and methods of use thereof” (The Board of Regents of the University of Texas System, priority 2015, dated 2019).
